Patent US6692927B2, “Bax degradation involvement in tumor survival and progression” (University of South Florida, priority 2000, dated 2004)
Where a SMILES comes first, the peptide text is derived from it. [ ]: non-standard residue; d: D form. The star is where a group is joined. Nle = CCCC[C@H](N)C(=O)O; Cbz = O=C(OCc1ccccc1)*

Key:
Bax degradation activity = test: cell-free Bax degradation assay, inhibitor added to MCF-7 cell extract; format: biochemical, human; details: 10-minute preincubation of MCF-7 cell extract with inhibitor (100 mM per FIG. 9C legend), 37° C., 4 h
Experimental: (§1) FIGS. 9A-9F show Bax degradation depends on ubiquitination, proteasome and ATP. (FIG. 9A) Jurkat cells (0 h) were treated with either 50 μM LLnV or 10 μM lactacystin, followed by preparation of Bax immunoprecipitates (with clone 6A7), which were immunoblotted with an ubiquitin antibody. Positions of putative ubiquitinated Bax proteins (p47, p55) are indicated at left. The nature of the ˜30 kDa and ˜84 kDa remains unclear. (FIG. 9B) The [^35S]-labeled Bax (upper) or Bcl-2 (lower) protein (1 μl) were incubated at 37° C. for 2 h with either buffer Z only (lane 1) or […] protein extract of MCF-7 cells grown exponentially (lane 2) or pretreated for 8 h with […] LLnV (lane 3). (FIG. 9C) The [^35S]-labeled Bax protein (1 μl) was incubated with either buffer Z only (lane 1) or 100 μg MCF-7 cell lysate at 37° C. for 4 h, in the presence of an indicated inhibitor (100 mM; lanes 3-8) or an equal volume of DMSO (lane 2) in buffer Z. A weak band of ˜16 kDa (indicated by an arrow) is probably an intermediate product of proteasome-mediated Bax degradation. (FIG. 9D) The proteasome in MCF-7 whole cell lysate (W lys, lane 1) was precipitated by using either ultraspin (ULS) or a proteasome subunit a6 antibody (IP). Both supernatant (lanes 2, 4) and pellet (lanes 3, 5) fractions were examined by Western blot assay using antibody to the proteasome a6 subunit (MW 33 kDa). (FIG. 9E) Bax degradation assay was performed as in FIG. 9B, with addition of buffer Z (lane 1) or 100 μg protein from MCF-7 whole cell lysate (lane 2), ultraspun supernatant (lane 3) or plus the pellet (lane 4), immunodepleted supernatant (lane 5) or plus a purified 20S proteasome ([…]; lane 6), or the purified proteasome alone (2 μg; lane 7). (FIG. 9F) Bax degradation assay was performed as in FIG. 9B, in the absence (lane 3) or presence of 10 mM ATP (lane 2) or 10 mM ATP-y-S (lane 4).
In vitro Bax Degradation Assay: Human Bax-a cDNA subcloned into pcDNA3 was a gift from Dr. Hong-gang Wang. Human full length of bcl-2-a cDNA was cloned from Jurkat T cells and subcloned into pcDNA3.1(−) as described+. Both bax and bcl-2 plasmids were used for coupled in vitro transcription/translation (Promega; Madison, Wis.) in the presence of [^35S]methionine (Amersham Pharmacia Biotech; Piscataway, N.J.). Protein extracts were prepared from either MCF-7 cells or prostate tumor tissues in buffer Y (50 mM Tris-HCl, pH 7.4, 250 mM NaCl, 1% Triton X-100, 0.1% SDS, 1 mM EDTA), and used for Bax (or Bcl-2) degradation assay. Briefly, 1 microl of [^35S]-labeled Bax (or Bcl-2) protein was incubated at 37° C. for 2-4 hours with 100-200 microg protein extract in buffer Z (50 mM Tris-HCl, pH 7.4, 5 mM MgCl2, 3 mM DTT, 10 mM ATP, 10 mM phosphocreatine, 10 microg/ml creatine phosphokinase, 10 microg/ml aprotinin, 10 microg/ml leupeptin, 10% glycerol and 2 microg/ml ubiquitin). After incubation, the samples were subjected to gel electrophoresis and autoradiography. Under the cell-free assay conditions, the calpain-mediated Bax cleavage activity was blocked by omission of calcium and addition of the protease inhibitor leupeptin (Wood et al, 1998). To deplete the proteasome, MCF-7 cell lysates were either immunoprecipitated with the 20S proteasome subunit a6 antibody or ultracentrifugated at 100,000×g for 6 hours. The proteasome-enriched pellet fraction was resuspended in buffer Y.
To further study the proteasome activity that degrades Bax protein, a cell-free Bax degradation assay was developed by using an in vitro-translated, [^35S]-labeled Bax protein as substrate (FIG. 9B, upper, lane 1). The Bax degradation activity is present in protein extracts prepared from exponentially growing MCF-7 (FIG. 9), K562, VA-13, WI-38, Jurkat T or HL-60 cells. The labeled Bax was almost completely degraded by a MCF-7 cell extract after 2 to 4 hours incubation at 37° C. (FIG. 9B, upper, and FIG. 9C, lanes 2 vs. 1). […]

[1] = tested on: human Jurkat T cells overexpressing Bcl-2 and human prostate, breast, tongue and brain tumor cell lines; details: cited from earlier work; for apoptosis induction / cell kill: low concentrations, same conditions for etoposide
Jurkat T cells = test: Western blot and Bax IP/ubiquitin blot in Jurkat T cells; format: cell-based, human; details: 50 microM
Experimental: FIGS. 8A-8D show proteasome inhibition accumulates Bax to mitochondria/cytoplasm and increases interaction between Bax and Bcl-2 proteins. Jurkat cells (0 h; FIG. 8A and FIG. 8B) or Jurkat cells overexpressing Bcl-2 (0 h; FIG. 8C and FIG. 8D) were treated by either 10 μM lactacystin (FIGS. 8A-8C), 50 μM LLnV (FIG. 8D), or 50 μM LLM (FIG. 8A and FIG. 8B) for the indicated hours. (FIG. 8A and FIG. 8B) Western blotting with antibodies to PARP and Bax were performed as described in FIG. 7. (FIG. 8C) Immunohistochemistry (see MATERIALS AND METHODS). Localization of Bax protein (green) and nuclei (red) are shown. (FIG. 8D) Bax immunoprecipitates, prepared by an agarose-conjugated N-20 Bax antibody, were immunoblotted first with the 6A7 Bax antibody (upper) and then reblotted with a Bcl-2 antibody (lower).
as §1, with “4). […]” for “4).”

normal WI-38 cells = test: PARP cleavage, cytochrome c release, Bax and p21 in normal fibroblasts; format: cell-based, human; details: LLnL at up to 200 microM, 14 hours
From the text: Proteasome inhibitors activate Bax- and cytochrome c-dependent apoptosis pathway preferentially in transformed human fibroblasts. Normal human fibroblasts are more resistant to proteasome inhibitor-induced apoptosis than transformed and cancer cells (An et al., in press). This is probably due to inability of the normal cells to accumulate Bax protein in response to proteasome inhibition, and consequently failure to release cytochrome c. To test this hypothesis, both SV40-transformed and normal WI-38 cells were treated with 50 microM LLnV for up to 24 hours, followed by measurement of PARP cleavage, cytochrome c release and Bax accumulation. […] In contrast, only after 24 hours treatment, low levels of p85/PARP fragment and cytosolic cytochrome c were detected in normal WI-38 cells (FIGS. 1, A, B, lanes 8-14). […] The levels of Bax/p21 were increased at as early as 4 hours and remained high afterwards. […] The level of another band of ˜47 kDa increased at 4 hours, further increased between 6 and 12 hours, and then decreased (FIG. 1C). The p70 and p47 bands can contain ubiquitinated forms of Bax since similar polypeptides were detected by antibodies to both Bax and ubiquitin (Li et al., 1999). […] Therefore, although unable to activate the Bax- and cytochrome c-dependent apoptotic pathway in response to a low concentration of a proteasome inhibitor, normal cells are capable of undergoing Bax- and cytochrome c-independent apoptosis in response to a proteasome inhibitor at higher concentrations.
SV40-transformed (VA-13) and normal WI-38 cells were treated with 50 microM LLnV or DMSO (letter D) for up to 24 hours, followed by measurement of PARP cleavage (A), cytochrome c release (B) and Bax accumulation (C; also see FIG. 2). Panel D, exponentially grown VA-13 cells were pretreated with 50 microM LLnV or DMSO for 1 hour, washed with methionine-free medium, and then incubated for 30 minutes in methionine-free medium plus 50 microM LLnV (or DMSO). This was followed by replacing fresh methionine-free medium containing 150 microCi/ml of [^35S]-methionine, 10% dialyzed FBS and 50 microM LLnV (or DMSO). Cells were further incubated for 6 hours, followed by preparation of [^35S]-labeled protein lysates and Bax immunoprecipitates (6A7, PharMingen). The labeled Bax bands are indicated. […] Bax-alpha subcloned into pcDNA3 was used for coupled in vitro transcription/translation in the presence of [^35S]methionine. For Bax cleavage assay, the whole cell extracts were prepared. The [^35S]-labeled Bax (0.7 microl) was incubated with 50 microg protein in assay buffer (containing 50 microM LLM and no Ca^2+) for 4 hours at 37° C. Following incubation, the samples were subjected to SDS gel electrophoresis and autoradiography.

[2] = tested on: simian virus 40-transformed and parental normal human fibroblasts; details: but not the parental normal; cited from earlier work

Compound | Bax degradation process/activity (Bax degradation activity) | further results
CC(C)C[C@@H](C=O)NC(=O)[C@H](CC(C)C)NC(=O)[C@H](CC(C)C)NC(=O)OCc1ccccc1 [LLL] (Cbz-Leu-Leu-Leu-aldehyde) | blocked | 
O=S(=O)(F)Cc1ccccc1 [phenylmethylsulfonyl fluoride] | not inhibited | 
CC(=O)N[C@@H](CC(=O)O)C(=O)N[C@@H](CCC(=O)O)C(=O)N[C@H](C(=O)N[C@@H](CC(=O)O)C(=O)CF)C(C)C [acetyl-DEVD-fluoromethyl ketone] | not inhibited | 
aprotinin | not inhibited | 
COc1cc([C@@H]2c3cc4c(cc3[C@@H](O[C@@H]3O[C@@H]5CO[C@@H](C)O[C@H]5[C@H](O)[C@H]3O)[C@H]3COC(=O)[C@H]23)OCO4)cc(OC)c1O [etoposide] |  | apoptosis induction / cell kill [1]: fails to kill these cells
CC(=O)N[C@@H](CC(C)C)C(=O)N[C@@H](CC(C)C)C(=O)N[C@H](C=O)CCCNC(=N)N [leupeptin] | not inhibited | 
CC(C)[C@H](O)[C@@]12NC(=O)[C@H](C)[C@@H]1OC2=O [b-lactone, clasto-lactacyctin b-lactone] | blocked | 
CC(=O)N[C@@H](Cc1ccc(O)cc1)C(=O)N[C@H](C(=O)N[C@@H](C)C(=O)N[C@@H](CC(=O)O)C(=O)CCl)C(C)C [acetyl-YVAD-chloromethyl ketone] | not inhibited | 
CSCCC(C=O)NC(=O)C(CC(C)C)NC(=O)C(CC(C)C)NC(C)=O (stereo not drawn) [LLM] (Ac-Leu-Leu-Met-aldehyde; configuration not given here) | not | Bax accumulation and PARP cleavage (Jurkat T cells): had no such effects
CCCC[C@@H](C=O)NC(=O)[C@H](CC(C)C)NC(=O)[C@H](CC(C)C)NC(C)=O [LLnL] (Ac-Leu-Leu-[Nle]-aldehyde) | blocked | apoptosis as judged by PARP cleavage (normal WI-38 cells): underwent apoptosis; cytochrome c release and Bax accumulation (normal WI-38 cells): neither release cytochrome c nor accumulate Bax; levels of the cdk inhibitor p21 (normal WI-38 cells): significantly increased
CCN1C(=O)C=CC1=O [N-ethylmaleimide] | not inhibited | 
tosyl-L-lysine chloromethyl ketone | not inhibited | 
N=C(N)c1ccccc1 [benzamidine] | not inhibited | 
CC(C)C[C@@H](C=O)NC(=O)[C@H](CCCN=C(N)N[N+](=O)[O-])NC(=O)C(CCCCCCCCN1C(=O)c2ccccc2C1=O)C1CCCC1 (some centres unmarked) [CEP1612] |  | cyclin-dependent kinase inhibitors p21 and p27 ([1]; associated with CEP1612-induced apoptosis): accumulation of the cyclin-dependent kinase inhibitors p21 and p27; apoptosis induction / cell kill [1]: rapidly induces apoptosis; p27 accumulation and apoptosis [2]: selectively accumulates p27 and induces apoptosis
